Test results reported in ChEMBL document CHEMBL4376865, “Discovery and Characterization of 1H-1,2,3-Triazole Derivatives as Novel Prostanoid EP4 Receptor Antagonists for Cancer Immunotherapy” (J Med Chem, 2020).

Assays:
[1] = target: Prostaglandin E2 receptor EP4 subtype (Homo sapiens, UniProt P35408)
Description: Antagonist activity at human EP4 expressed in CHO cells coexpressing G16-alpha assessed as intracellular calcium flux preincubated for 15 mins followed by addition of PGE2 by calcium flux assay

[2] = target: CYP2E1 (Homo sapiens, UniProt P05181); test: Inhibition of CYP2E1 in human liver microsomes at 20 uM using chlorzoxazone as substrate incubated for 60 mins by HPLC analysis relative to control; format: ADME; details: probe chlorzoxazone
CYP2E1, sequence (P05181 whole entry): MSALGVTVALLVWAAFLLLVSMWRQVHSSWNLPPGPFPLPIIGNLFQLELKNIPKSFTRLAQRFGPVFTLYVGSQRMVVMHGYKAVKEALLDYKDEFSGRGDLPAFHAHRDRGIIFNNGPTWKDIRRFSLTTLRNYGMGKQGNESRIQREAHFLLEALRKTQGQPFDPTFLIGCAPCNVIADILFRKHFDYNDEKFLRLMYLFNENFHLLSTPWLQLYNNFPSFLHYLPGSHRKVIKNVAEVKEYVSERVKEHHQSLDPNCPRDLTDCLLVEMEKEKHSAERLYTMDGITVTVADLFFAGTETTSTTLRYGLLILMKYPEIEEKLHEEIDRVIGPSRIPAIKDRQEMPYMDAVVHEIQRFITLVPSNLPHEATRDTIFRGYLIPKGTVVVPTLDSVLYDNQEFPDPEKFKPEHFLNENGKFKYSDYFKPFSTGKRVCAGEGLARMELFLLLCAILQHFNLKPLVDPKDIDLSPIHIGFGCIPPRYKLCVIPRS

[3] = target: CYP2D6 (Homo sapiens, UniProt P10635); test: Inhibition of CYP2D6 in human liver microsomes at 20 uM using dextromethorphan as substrate incubated for 60 mins by HPLC analysis relative to control; format: ADME; details: probe dextromethorphan
CYP2D6, sequence (P10635 whole entry): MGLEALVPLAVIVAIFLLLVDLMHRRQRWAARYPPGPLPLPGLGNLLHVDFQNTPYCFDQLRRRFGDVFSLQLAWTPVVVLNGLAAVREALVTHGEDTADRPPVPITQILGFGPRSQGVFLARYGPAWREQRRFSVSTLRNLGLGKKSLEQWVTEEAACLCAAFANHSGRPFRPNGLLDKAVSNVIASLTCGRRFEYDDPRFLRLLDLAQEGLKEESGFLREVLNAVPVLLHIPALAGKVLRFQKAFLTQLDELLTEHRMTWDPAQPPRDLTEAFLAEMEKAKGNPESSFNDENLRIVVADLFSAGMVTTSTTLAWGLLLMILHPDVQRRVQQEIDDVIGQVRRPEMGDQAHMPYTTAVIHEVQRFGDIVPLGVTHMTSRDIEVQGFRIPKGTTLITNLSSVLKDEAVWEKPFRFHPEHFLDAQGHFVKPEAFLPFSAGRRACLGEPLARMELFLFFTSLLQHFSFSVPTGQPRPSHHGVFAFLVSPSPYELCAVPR

[4] = target: Prostaglandin E2 receptor EP4 subtype (Mus musculus, UniProt P32240); test: Antagonist activity at mouse EP4 expressed in CHO cells coexpressing G16-alpha assessed as intracellular calcium flux preincubated for 15 mins followed by addition of PGE2 by calcium flux assay; format: functional, cell-based
Prostaglandin E2 receptor EP4 subtype (Mus musculus, UniProt P32240), sequence (P32240 whole entry): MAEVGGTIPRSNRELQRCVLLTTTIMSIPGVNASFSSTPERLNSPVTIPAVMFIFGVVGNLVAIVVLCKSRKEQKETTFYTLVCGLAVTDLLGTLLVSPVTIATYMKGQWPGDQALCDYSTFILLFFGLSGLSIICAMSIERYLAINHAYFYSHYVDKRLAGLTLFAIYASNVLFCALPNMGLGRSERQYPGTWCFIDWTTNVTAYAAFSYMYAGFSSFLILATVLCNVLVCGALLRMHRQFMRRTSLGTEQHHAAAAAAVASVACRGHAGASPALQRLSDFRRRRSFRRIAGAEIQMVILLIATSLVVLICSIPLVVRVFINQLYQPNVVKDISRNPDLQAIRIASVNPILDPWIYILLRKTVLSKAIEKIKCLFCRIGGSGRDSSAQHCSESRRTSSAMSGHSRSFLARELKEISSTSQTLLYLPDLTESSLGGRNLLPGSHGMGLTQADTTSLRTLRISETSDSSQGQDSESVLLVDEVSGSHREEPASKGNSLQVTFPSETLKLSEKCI

[5] = target: T1, Prostaglandin E2 receptor EP1 subtype (Homo sapiens, UniProt P34995); test: Antagonist activity at human EP1 expressed in CHO cells coexpressing G16-alpha assessed as intracellular calcium flux preincubated for 15 mins followed by addition of PGE2 by calcium flux assay; format: functional, cell-based
T1 sequence (P34995 whole entry): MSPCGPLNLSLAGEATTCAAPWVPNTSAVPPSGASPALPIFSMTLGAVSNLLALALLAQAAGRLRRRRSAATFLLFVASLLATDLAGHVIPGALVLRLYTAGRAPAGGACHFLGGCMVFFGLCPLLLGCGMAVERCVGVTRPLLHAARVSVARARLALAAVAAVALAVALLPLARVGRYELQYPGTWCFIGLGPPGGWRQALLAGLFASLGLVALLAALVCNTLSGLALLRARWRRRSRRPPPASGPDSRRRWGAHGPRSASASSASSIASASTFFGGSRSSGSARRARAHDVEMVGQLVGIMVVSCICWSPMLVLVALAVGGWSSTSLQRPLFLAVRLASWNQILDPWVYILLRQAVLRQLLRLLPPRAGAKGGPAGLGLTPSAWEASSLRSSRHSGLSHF

[6] = target: T2, CYP1A2 (Homo sapiens, UniProt P05177); test: Inhibition of CYP1A2 in human liver microsomes at 20 uM using phenacetin as substrate incubated for 30 mins by HPLC analysis relative to control; format: ADME; details: probe phenacetin
T2 sequence (P05177 whole entry): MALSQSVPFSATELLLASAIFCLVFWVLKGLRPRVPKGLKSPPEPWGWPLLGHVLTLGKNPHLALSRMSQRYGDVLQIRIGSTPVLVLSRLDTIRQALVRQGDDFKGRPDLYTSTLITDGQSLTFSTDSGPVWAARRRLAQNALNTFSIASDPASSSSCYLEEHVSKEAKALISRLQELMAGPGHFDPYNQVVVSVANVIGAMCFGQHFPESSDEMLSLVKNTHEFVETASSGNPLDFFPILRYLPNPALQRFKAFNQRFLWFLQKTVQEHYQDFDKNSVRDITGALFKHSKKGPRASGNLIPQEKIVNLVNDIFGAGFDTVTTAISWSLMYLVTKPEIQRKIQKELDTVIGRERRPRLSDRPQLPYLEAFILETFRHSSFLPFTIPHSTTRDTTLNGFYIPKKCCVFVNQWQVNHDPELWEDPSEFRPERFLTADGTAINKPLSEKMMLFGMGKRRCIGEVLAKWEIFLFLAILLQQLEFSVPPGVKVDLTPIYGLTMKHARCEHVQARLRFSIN

[7] = target: T3, CYP2B6 (Homo sapiens, UniProt P20813); test: Inhibition of CYP2B6 in human liver microsomes at 20 uM incubated for 60 mins by HPLC analysis relative to control; format: ADME
T3 sequence (P20813 whole entry): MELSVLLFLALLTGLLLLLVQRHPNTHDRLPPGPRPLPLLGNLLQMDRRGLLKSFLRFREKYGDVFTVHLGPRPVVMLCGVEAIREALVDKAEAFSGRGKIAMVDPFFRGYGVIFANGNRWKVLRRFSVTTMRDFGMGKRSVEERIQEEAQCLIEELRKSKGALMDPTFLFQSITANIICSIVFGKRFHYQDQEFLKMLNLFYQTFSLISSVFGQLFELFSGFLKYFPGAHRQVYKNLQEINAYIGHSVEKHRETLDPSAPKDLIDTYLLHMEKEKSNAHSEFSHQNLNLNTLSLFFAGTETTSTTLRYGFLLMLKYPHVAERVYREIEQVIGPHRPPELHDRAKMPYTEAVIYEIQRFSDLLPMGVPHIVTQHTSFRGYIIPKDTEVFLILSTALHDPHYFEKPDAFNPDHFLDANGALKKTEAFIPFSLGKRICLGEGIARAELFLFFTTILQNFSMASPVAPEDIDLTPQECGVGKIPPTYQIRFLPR

[8] = target: CYP2C9 (Homo sapiens, UniProt P11712); test: Inhibition of CYP2C9 in human liver microsomes at 20 uM using tolbutamide as substrate incubated for 60 mins by HPLC analysis relative to control; format: ADME; details: probe tolbutamide
CYP2C9, sequence (P11712 whole entry): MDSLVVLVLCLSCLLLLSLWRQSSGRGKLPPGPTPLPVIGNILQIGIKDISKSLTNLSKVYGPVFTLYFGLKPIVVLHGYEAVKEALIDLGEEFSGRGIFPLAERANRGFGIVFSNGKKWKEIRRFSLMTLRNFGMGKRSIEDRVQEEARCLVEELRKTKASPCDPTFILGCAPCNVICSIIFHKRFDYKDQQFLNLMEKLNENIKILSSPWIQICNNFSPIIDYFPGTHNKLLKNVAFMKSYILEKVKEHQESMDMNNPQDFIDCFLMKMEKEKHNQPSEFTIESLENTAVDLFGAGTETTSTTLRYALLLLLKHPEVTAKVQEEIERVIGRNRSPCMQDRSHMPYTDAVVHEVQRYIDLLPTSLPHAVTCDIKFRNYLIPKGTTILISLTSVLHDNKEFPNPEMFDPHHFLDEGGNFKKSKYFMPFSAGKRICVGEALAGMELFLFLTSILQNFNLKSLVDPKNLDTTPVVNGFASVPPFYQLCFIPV

[9] = target: Cytochrome P450 3A4 (Homo sapiens, UniProt P08684); test: Inhibition of CYP3A4 in human liver microsomes at 20 uM using testosterone as substrate incubated for 60 mins by HPLC analysis; format: ADME; details: 1 h
Cytochrome P450 3A4, sequence (P08684 whole entry): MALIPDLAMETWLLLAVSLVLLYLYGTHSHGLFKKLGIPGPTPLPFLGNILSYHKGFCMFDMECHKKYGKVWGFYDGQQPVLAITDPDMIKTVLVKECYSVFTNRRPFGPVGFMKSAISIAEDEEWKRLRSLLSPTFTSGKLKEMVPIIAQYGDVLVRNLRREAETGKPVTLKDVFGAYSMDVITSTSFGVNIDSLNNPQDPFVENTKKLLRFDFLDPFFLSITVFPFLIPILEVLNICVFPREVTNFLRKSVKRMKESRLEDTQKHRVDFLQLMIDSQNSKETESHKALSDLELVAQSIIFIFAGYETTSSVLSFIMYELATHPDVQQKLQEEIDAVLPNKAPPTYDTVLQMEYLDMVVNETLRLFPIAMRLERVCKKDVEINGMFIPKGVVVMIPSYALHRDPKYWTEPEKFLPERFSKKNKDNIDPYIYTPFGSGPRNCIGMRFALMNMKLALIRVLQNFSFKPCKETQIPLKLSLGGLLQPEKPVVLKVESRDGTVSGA

[10] = target: Prostaglandin E2 receptor EP2 subtype (Homo sapiens, UniProt P43116)
Prostaglandin E2 receptor EP2 subtype, sequence (P43116 whole entry): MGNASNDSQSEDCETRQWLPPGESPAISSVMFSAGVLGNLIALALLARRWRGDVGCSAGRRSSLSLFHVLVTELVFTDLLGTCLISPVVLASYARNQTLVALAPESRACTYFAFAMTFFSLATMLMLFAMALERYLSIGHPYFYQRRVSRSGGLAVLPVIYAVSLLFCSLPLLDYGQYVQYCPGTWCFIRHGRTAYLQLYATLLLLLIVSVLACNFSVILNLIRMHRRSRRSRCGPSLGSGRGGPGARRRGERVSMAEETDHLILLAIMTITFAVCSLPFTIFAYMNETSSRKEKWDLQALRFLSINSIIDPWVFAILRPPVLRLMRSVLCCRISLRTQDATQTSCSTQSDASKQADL
Description: Antagonist activity at human EP2 expressed in CHO cells coexpressing G16-alpha assessed as intracellular calcium flux preincubated for 15 mins followed by addition of PGE2 by calcium flux assay

[11] = target: T4, Prostaglandin E2 receptor EP3 subtype (Homo sapiens, UniProt P43115)
T4 sequence (P43115 whole entry): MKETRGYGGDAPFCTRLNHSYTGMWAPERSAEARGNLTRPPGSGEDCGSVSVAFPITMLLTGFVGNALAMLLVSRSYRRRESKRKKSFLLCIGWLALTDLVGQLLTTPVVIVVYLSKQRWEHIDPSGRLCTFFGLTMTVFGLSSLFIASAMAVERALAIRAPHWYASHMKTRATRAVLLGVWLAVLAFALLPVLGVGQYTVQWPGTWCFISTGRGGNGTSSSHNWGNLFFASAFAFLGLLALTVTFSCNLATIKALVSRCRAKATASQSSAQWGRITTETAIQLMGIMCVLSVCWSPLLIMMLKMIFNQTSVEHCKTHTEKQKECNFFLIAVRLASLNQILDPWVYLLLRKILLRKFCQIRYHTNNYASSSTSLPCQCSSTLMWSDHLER
Description: Antagonist activity at human EP3 expressed in CHO cells coexpressing G16-alpha assessed as intracellular calcium flux preincubated for 15 mins followed by addition of PGE2 by calcium flux assay

[12] = in vitro; details: human, liver microsomes
[13] = in vitro; details: human, liver microsomes; remark: listed apart in the source
[14] = in vitro; details: CD1, mouse, liver microsomes
[15] = in vitro; details: CD1, mouse, liver microsomes; remark: listed apart in the source
[16] = Metabolic stability in human liver microsomes assessed as compound remaining at 10 uM incubated for 1 hr
[17] = tested on: CT26; test: Antitumor activity against mouse CT26 cells xenografted in BALB/c mouse assessed as tumor growth inhibition at 150 mg/kg, po administerd daily and measured after two weeks; details: 336 h, read-out: TGI

Prostaglandin E2 receptor EP4 subtype (Homo sapiens, UniProt P35408), sequence (P35408 whole entry): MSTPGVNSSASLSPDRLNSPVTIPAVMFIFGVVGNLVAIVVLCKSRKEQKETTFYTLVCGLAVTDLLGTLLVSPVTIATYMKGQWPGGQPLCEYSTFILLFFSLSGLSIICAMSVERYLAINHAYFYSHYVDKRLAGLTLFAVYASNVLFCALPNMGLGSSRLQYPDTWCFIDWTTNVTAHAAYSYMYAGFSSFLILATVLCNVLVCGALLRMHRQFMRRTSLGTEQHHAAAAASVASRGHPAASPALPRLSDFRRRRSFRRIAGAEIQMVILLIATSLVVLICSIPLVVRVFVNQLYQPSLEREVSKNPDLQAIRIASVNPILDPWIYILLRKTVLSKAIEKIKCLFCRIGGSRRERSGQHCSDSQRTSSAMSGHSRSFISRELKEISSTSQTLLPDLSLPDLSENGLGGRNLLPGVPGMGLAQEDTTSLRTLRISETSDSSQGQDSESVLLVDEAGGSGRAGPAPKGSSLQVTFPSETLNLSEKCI

C[C@H](NC(=O)c1c(C(F)(F)F)nnn1Cc1ccc(C(F)(F)F)cc1)c1ccc(C(=O)O)cc1
IC50 [1]: 0.225 µM

C[C@H](NC(=O)c1nnn(CCc2ccc(F)cc2)c1C(F)(F)F)c1ccc(C(=O)O)cc1
IC50 [1]: > 10 µM

C[C@H](NC(=O)c1c(-c2ccccc2)nnn1CCOc1cccc(C(F)(F)F)c1)c1ccc(C(=O)O)cc1
inhibition at 1 h, 20 µM [2]: 67%
inhibition at 1 h, 20 µM [3]: 30%
IC50 [4]: 0.135 µM
IC50 [5]: > 10 µM
inhibition at 0.5 h, 20 µM [6]: 30%
inhibition at 1 h, 20 µM [7]: 51%
inhibition at 1 h, 20 µM [8]: 67%
inhibition (INH) [9]: Not Active
IC50 [10]: > 10 µM
IC50 [11]: > 10 µM

COc1cccc(Cn2nnc(-c3ccccc3)c2C(=O)N[C@@H](C)c2ccc(C(=O)O)cc2)c1
IC50 [1]: 0.0968 µM

C/C=C/c1nnn(Cc2ccc(C(F)(F)F)cc2)c1C(=O)NCC1CCC(C(=O)O)CC1 (centres undefined)
IC50 [4]: 0.22 µM

C[C@H](NC(=O)c1c(C2=CCCC2)nnn1Cc1ccc(C(F)(F)F)cc1)c1ccc(C(=O)O)cc1
IC50 [4]: 0.4 µM
IC50 [5]: > 10 µM
IC50 [10]: > 10 µM
IC50 [11]: > 10 µM

C[C@H](NC(=O)c1nnn(Cc2cccc(C(F)(F)F)c2)c1C(F)(F)F)c1ccc(C(=O)O)cc1
IC50 [1]: > 10 µM

C[C@H](NC(=O)c1c(C2=CCCCC2)nnn1Cc1ccc(C(F)(F)F)cc1)c1ccc(C(=O)O)cc1
IC50 [1]: 0.183 µM

C[C@H](NC(=O)c1c(-c2ccccc2)nnn1CC1CCCCC1)c1ccc(C(=O)O)cc1
IC50 [1]: > 10 µM

C[C@H](NC(=O)c1c(-c2ccccc2)nnn1Cc1ccc(F)cc1)c1ccc(C(=O)O)cc1
IC50 [1]: 0.33 µM

O=C(O)Cc1ccccc1Nc1c(Cl)cccc1Cl [DICLOFENAC]
half-life at 1 h, 10 µM [12]: 10.6 min
microsomal CLint at 1 h, 10 µM [13]: 131 µL/min/mg
half-life at 1 h, 10 µM [14]: 53.6 min
microsomal CLint at 1 h, 10 µM [15]: 25.8 µL/min/mg

C/C=C/c1nnn(Cc2ccc(C(F)(F)F)cc2)c1C(=O)NCc1ccc(C(=O)O)cc1
IC50 [4]: 0.13 µM
IC50 [1]: 0.0105 µM

C/C=C/c1nnn(Cc2ccc(C(F)(F)F)cc2)c1C(=O)NC1(c2ccc(C(=O)O)cc2)CC1
IC50 [4]: 0.0337 µM
IC50 [1]: 0.0139 µM

Cc1nnn(Cc2ccc(C(F)(F)F)cc2)c1C(=O)N[C@@H](C)c1ccc(C(=O)O)cc1
IC50 [1]: > 10 µM

CCCc1c(C(=O)N[C@@H](C)c2ccc(C(=O)O)cc2)nnn1Cc1ccc(C(F)(F)F)cc1
IC50 [1]: > 10 µM

C[C@H](NC(=O)c1c(-c2ccoc2)nnn1Cc1ccc(C(F)(F)F)cc1)c1ccc(C(=O)O)cc1
IC50 [4]: 0.0576 µM
IC50 [5]: > 10 µM
remaining at 1 h, 10 µM [16]: 87.9%
IC50 [1]: 0.0456 µM
IC50 [10]: > 10 µM
IC50 [11]: > 10 µM
half-life at 1 h, 10 µM [12]: > 145 min
microsomal CLint at 1 h, 10 µM [13]: < 9.6 µL/min/mg

CCc1nnn(Cc2ccc(C(F)(F)F)cc2)c1C(=O)N[C@@H](C)c1ccc(C(=O)O)cc1
IC50 [1]: > 10 µM

C[C@H](NC(=O)c1c(-c2ccc(F)cc2)nnn1Cc1ccc(C(F)(F)F)cc1)c1ccc(C(=O)O)cc1
IC50 [1]: 0.0579 µM

C[C@H](NC(=O)c1c(-c2ccccc2)nnn1CCOc1ccc(C(F)(F)F)cc1)c1ccc(C(=O)O)cc1
IC50 [1]: 0.0491 µM

C[C@]12CC[C@H]3[C@@H](CCC4=CC(=O)CC[C@@]43C)[C@@H]1CC[C@@H]2O [TESTOSTERONE]
half-life at 1 h, 10 µM [12]: 19.4 min
microsomal CLint at 1 h, 10 µM [13]: 71.3 µL/min/mg
half-life at 1 h, 10 µM [14]: 2.9 min
microsomal CLint at 1 h, 10 µM [15]: 479 µL/min/mg

Cc1ccc(-c2nnn(Cc3ccc(C(F)(F)F)cc3)c2C(=O)N[C@@H](C)c2ccc(C(=O)O)cc2)s1
IC50 [4]: 0.0421 µM
IC50 [5]: > 10 µM
IC50 [10]: > 10 µM
IC50 [11]: > 10 µM

C/C=C/c1nnn(Cc2ccc(C(F)(F)F)cc2)c1C(=O)N[C@H](C)c1ccc(C(=O)O)cc1
IC50 [1]: > 1 µM

C[C@H](NC(=O)c1c(-c2ccccc2)nnn1CCOc1ccc(F)cc1)c1ccc(C(=O)O)cc1
IC50 [4]: 0.132 µM
IC50 [5]: > 10 µM
IC50 [10]: > 10 µM
IC50 [11]: > 10 µM

C[C@H](NC(=O)c1c(C(F)(F)F)nnn1CCc1ccc(F)cc1)c1ccc(C(=O)O)cc1
IC50 [1]: > 10 µM

C[C@H](NC(=O)c1cnnn1Cc1ccc(C(F)(F)F)cc1)c1ccc(C(=O)O)cc1
IC50 [1]: > 10 µM

C[C@H](NC(=O)c1c(C2CCCCC2)nnn1Cc1ccc(C(F)(F)F)cc1)c1ccc(C(=O)O)cc1
IC50 [1]: 0.161 µM

COc1ccc(Cn2nnc(-c3ccccc3)c2C(=O)N[C@@H](C)c2ccc(C(=O)O)cc2)cc1
IC50 [1]: 0.0093 µM

C[C@H](NC(=O)c1c(-c2ccccc2)nnn1Cc1ccc(C(F)(F)F)cc1)c1ccc(C(=O)O)cc1
IC50 [4]: 0.906 µM
IC50 [5]: > 10 µM
remaining at 1 h, 10 µM [16]: 84.9%
IC50 [1]: 0.0085 µM
IC50 [10]: > 10 µM
IC50 [11]: > 10 µM
half-life at 1 h, 10 µM [12]: > 145 min
microsomal CLint at 1 h, 10 µM [13]: < 9.6 µL/min/mg

C[C@H](NC(=O)c1c(C2CCC2)nnn1Cc1ccc(C(F)(F)F)cc1)c1ccc(C(=O)O)cc1
IC50 [1]: 0.0753 µM

CC#Cc1nnn(Cc2ccc(C(F)(F)F)cc2)c1C(=O)N[C@@H](C)c1ccc(C(=O)O)cc1
inhibition at 1 h, 20 µM [2]: 76%
inhibition at 1 h, 20 µM [3]: 38%
IC50 [4]: 0.0709 µM
IC50 [5]: > 10 µM
inhibition at 0.5 h, 20 µM [6]: 82%
inhibition at 1 h, 20 µM [7]: 34%
inhibition at 1 h, 20 µM [8]: 69%
inhibition (INH) [9]: Not Active
IC50 [1]: 0.032 µM
IC50 [10]: > 10 µM

COc1ccc(Cn2nnc(-c3ccccc3)c2C(=O)N[C@@H](C)c2ccc(C(=O)O)cc2)cc1OC
IC50 [1]: 0.119 µM

C[C@H](NC(=O)c1c(C(F)F)nn(C)c1Oc1cccc(C(F)(F)F)c1)c1ccc(C(=O)O)cc1 [PALUPIPRANT]
inhibition at 1 h, 20 µM [2]: 79%
inhibition at 1 h, 20 µM [3]: 35%
IC50 [4]: 0.181 µM
inhibition at 0.5 h, 20 µM [6]: 41%
inhibition at 1 h, 20 µM [7]: 23%
inhibition at 1 h, 20 µM [8]: 67%
inhibition (INH) [9]: Not Active
inhibition in vivo at 150 mg/kg [17]: 43.2%

C[C@H](NC(=O)c1nnn(Cc2ccc(C(F)(F)F)cc2)c1C(F)(F)F)c1ccc(C(=O)O)cc1
IC50 [1]: > 10 µM
